Results reported in patent US7811760B2, “Vector and method for detecting the change in transcription amount” (priority 2006, dated 2010).

Tested on: ligand-dependent transcription factors (AhR, ER, and AR)
Experiment: Reporter gene (luciferase) assay in Neuro2a cells carrying PGV-THp03 (SEQ ID No: 2)
Assay type: cell-based, mouse
Conditions: 10 nM, 30 hours, PGV-THp03, AhR-introduced Neuro2a
Method: A vector (PGV-THp03) containing the upstream region (SEQ ID No: 2) ranging from about −300 to 0 position of the TH gene-coding region, which was prepared in Example 4, was used. Neuro2a was used as the cell.
Two kinds of vectors, pcDNA4-rAhR (Example 1) and pcDNA4/V5-His/lacZ (Invitrogen), were introduced into Neuro2a, together with PGV-THp03. pcDNA4-rAhR was introduced for constitutive expression of the SD-line rat AhR gene (SEQ ID No: 10) in the cell, and pcDNA4/V5-His/lacZ was introduced for normalization of the vector transfection efficiency.
The vectors were introduced into the cell by using LIPOFECTAMINE 2000 (Invitrogen). The cell was cultured on a 24-well plate, and the operation was performed according to the manual of Invitrogen. A total of […] of vectors (0.4 μg of PGV-THp03, 0.2 μg of pcDNA4-rAhR, and 0.2 μg of pcDNA4/V5-His/lacZ) suspended in 50 μl of OPTI-MEM medium and 2 μl of LIPOFECTAMINE 2000 suspended in 50 μl of OPTI-MEM medium were mixed, and incubated at room temperature for 20 minutes to form nucleic acid/LIPOFECTAMINE 2000 complex. The obtained suspension containing the complex was added to Neuro2a cell culture, which has been previously cultured overnight in 500 μl of DF1:1 medium (containing 10% fetal calf serum) (0.8×10^5 cells were seeded on previous day), to allow incorporation of the vectors into the cell. The cell was cultured additionally for 24 hours after transfection, for the purpose of improvement in vector incorporation efficiency and expression of the protein derived from the introduced vectors.
As the test substances, vinclozolin (10 μM), dimethyl phthalate (10 μM), benzopyrene (1 μM), and dioxin (TCDD) (10 nM) were used. After the transfection and the additional incubation for 24 hours, the medium was replaced with a fresh medium containing any one of the test substances, and the cell was cultured additionally for 30 hours. After 30 hours, the medium was removed from the 24-well plate, and the cell was washed with phosphate buffer twice. 100 μl of a protein extraction solution (manufactured by TOYO B-NET) was added to each well, and the cell suspension was stirred gently at room temperature for 15 minutes and then frozen at −80° C. The frozen solution was thawed at room temperature, and the resulting solution was recovered in a tube and diluted ten times with a protein extraction reagent containing 1 mg/ml bovine serum albumin luciferase and β-galactosidase activities in the diluted solution were measured, and the expression amount of the reporter gene was calculated as a relative luminescence intensity per 1 ng of β-galactosidase per second (RLU/sec/ng β-galactosidase).

For `Clc1cc2c(cc1Cl)Oc1cc(Cl)c(Cl)cc1O2` [TCDD, 2,3,7,8-tetrachlorodibenzo-p-dioxine], the luciferase activity increase was “approximately 1.4 times”.
